Measurements published in PubChem BioAssay (NCI).
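Interpolation was linear, between the two tested concentrations surrounding the appropriate level; five concentrations were tested over 48 hours in 96-well plates. TGI marks complete inhibition of growth.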

Assays:
Test in all cases: NCI anticancer screen, dose series, 48 h
[1] = system: 786-0 renal
[2] = system: A498 renal
[3] = system: A549 NSCLC
[4] = system: ACHN renal
[5] = system: BT-549 breast
[6] = system: CAKI-1 renal
[7] = system: CCRF-CEM leukemia
[8] = system: COLO 205 colon
[9] = system: EKVX NSCLC
[10] = system: HCC-2998 colon
[11] = system: HCT-116 colon
[12] = system: HCT-15 colon
[13] = system: HL-60(TB) leukemia
[14] = system: HOP-62 NSCLC
[15] = system: HOP-92 NSCLC
[16] = system: HS 578T breast
[17] = system: HT29 colon
[18] = system: IGROV1 ovarian
[19] = system: K-562 leukemia
[20] = system: KM12 colon
[21] = system: LOX IMVI melanoma
[22] = system: M14 melanoma
[23] = system: MALME-3M melanoma
[24] = system: MCF7 breast
[25] = system: MDA-MB-231 breast
[26] = system: MDA-MB-435
[27] = system: MDA-N
[28] = system: MOLT-4 leukemia
[29] = system: NCI-H226 lung
[30] = system: NCI-H23 lung
[31] = system: NCI-H460 lung
[32] = system: NCI-H522 lung
[33] = system: NCI/ADR-RES ovarian
[34] = system: OVCAR-3 ovarian
[35] = system: OVCAR-4 ovarian
[36] = system: OVCAR-5 ovarian
[37] = system: OVCAR-8 ovarian
[38] = system: PC-3 prostate
[39] = system: RPMI-8226 leukemia
[40] = system: RXF 393 renal
[41] = system: SF-268 CNS
[42] = system: SF-295 CNS
[43] = system: SF-539 CNS
[44] = system: SK-MEL-2 melanoma
[45] = system: SK-MEL-28 melanoma
[46] = system: SK-MEL-5 melanoma
[47] = system: SK-OV-3 ovarian
[48] = system: SNB-19 CNS
[49] = system: SNB-75 CNS
[50] = system: SR leukemia
[51] = system: SW-620 colon
[52] = system: T-47D breast
[53] = system: TK-10 renal
[54] = system: U251 CNS
[55] = system: UACC-257 melanoma
[56] = system: UACC-62 melanoma
[57] = system: UO-31 renal
[58] = system: DU-145 prostate
[59] = system: SN12C renal

Which results are given for `CN(/N=C/c1ccccn1)C1=NCCCN1`?
TGI [1]: > 100 µM; TGI [2]: > 100 µM; TGI [3]: > 100 µM; TGI [4]: > 100 µM; TGI [5]: > 100 µM; TGI [6]: > 100 µM; TGI [7]: > 100 µM; TGI [8]: > 100 µM; TGI [9]: > 100 µM; TGI [10]: > 100 µM; TGI [11]: > 100 µM; TGI [12]: > 100 µM; TGI [13]: > 100 µM; TGI [14]: > 100 µM; TGI [15]: > 100 µM; TGI [16]: > 100 µM; TGI [17]: > 100 µM; TGI [18]: > 100 µM; TGI [19]: > 100 µM; TGI [20]: > 100 µM; TGI [21]: > 100 µM; TGI [22]: > 100 µM; TGI [23]: > 100 µM; TGI [24]: > 100 µM; TGI [25]: > 100 µM; TGI [26]: > 100 µM; TGI [27]: > 100 µM; TGI [28]: > 100 µM; TGI [29]: > 100 µM; TGI [30]: > 100 µM; TGI [31]: > 100 µM; TGI [32]: > 100 µM; TGI [33]: > 100 µM; TGI [34]: > 100 µM; TGI [35]: > 100 µM; TGI [36]: > 100 µM; TGI [37]: > 100 µM; TGI [38]: > 100 µM; TGI [39]: > 100 µM; TGI [40]: > 100 µM; TGI [41]: > 100 µM; TGI [42]: > 100 µM; TGI [43]: > 100 µM; TGI [44]: > 100 µM; TGI [45]: > 100 µM; TGI [46]: > 100 µM; TGI [47]: > 100 µM; TGI [48]: > 100 µM; TGI [49]: > 100 µM; TGI [50]: > 100 µM; TGI [51]: > 100 µM; TGI [52]: > 100 µM; TGI [53]: > 100 µM; TGI [54]: > 100 µM; TGI [55]: > 100 µM; TGI [56]: > 100 µM; TGI [57]: > 100 µM

For `O=c1oc2ccccc2c(O)c1C(c1ccc(-c2ccccc2)cc1)c1c(O)c2ccccc2oc1=O`, which TGI [1] is on record?
Its TGI is 81.3 µM.

And the TGI [2]?
Its TGI is greater than 100 µM.

What about the TGI [4] of the same compound?
The TGI was 60.4 µM.

And the TGI [5]?
The TGI was 40.4 µM.

What about the TGI [6] of the same compound?
The TGI was 39.4 µM.

And the TGI [7]?
The TGI was 93.8 µM.

What about the TGI [8] of the same compound?
The TGI was greater than 100 µM.

What about the TGI [58] of the same compound?
The TGI was greater than 100 µM.

And the TGI [9]?
Its TGI is greater than 100 µM.

And the TGI [10]?
Its TGI is 29 µM.

What about the TGI [11] of the same compound?
The TGI was 79.1 µM.

And the TGI [12]?
Its TGI is 40 µM.

What about the TGI [13] of the same compound?
Its TGI is 51.7 µM.

What about the TGI [14] of the same compound?
The TGI was 55.4 µM.

And the TGI [15]?
The TGI was 48.5 µM.

And the TGI [16]?
The TGI was 60.4 µM.

What about the TGI [17] of the same compound?
Its TGI is 38.3 µM.

And the TGI [18]?
Its TGI is greater than 100 µM.

And the TGI [19]?
The TGI was greater than 100 µM.

What about the TGI [20] of the same compound?
Its TGI is 38.1 µM.

What about the TGI [21] of the same compound?
The TGI was 44.4 µM.

What about the TGI [23] of the same compound?
Its TGI is 65 µM.

What about the TGI [25] of the same compound?
The TGI was 48.8 µM.

What about the TGI [26] of the same compound?
The TGI was 46.9 µM.

And the TGI [27]?
The TGI was 36.1 µM.

What about the TGI [28] of the same compound?
Its TGI is greater than 100 µM.

And the TGI [29]?
Its TGI is 69 µM.

And the TGI [30]?
Its TGI is 56.8 µM.

And the TGI [31]?
The TGI was 33.7 µM.

And the TGI [32]?
Its TGI is 66.7 µM.

And the TGI [33]?
Its TGI is 58.6 µM.

And the TGI [34]?
Its TGI is 58.7 µM.

And the TGI [35]?
The TGI was greater than 100 µM.

What about the TGI [37] of the same compound?
Its TGI is 34.1 µM.

What about the TGI [38] of the same compound?
The TGI was 56.4 µM.

What about the TGI [39] of the same compound?
The TGI was 95.8 µM.

And the TGI [41]?
The TGI was 57.1 µM.

And the TGI [44]?
Its TGI is 56.8 µM.

What about the TGI [45] of the same compound?
The TGI was 32 µM.

And the TGI [46]?
Its TGI is 80.9 µM.

And the TGI [59]?
Its TGI is 33.7 µM.

What about the TGI [48] of the same compound?
Its TGI is greater than 100 µM.

What about the TGI [49] of the same compound?
The TGI was greater than 100 µM.

What about the TGI [51] of the same compound?
Its TGI is 33.2 µM.

And the TGI [52]?
Its TGI is greater than 100 µM.

What about the TGI [53] of the same compound?
Its TGI is greater than 100 µM.

What about the TGI [54] of the same compound?
The TGI was greater than 100 µM.

What about the TGI [55] of the same compound?
The TGI was greater than 100 µM.

What about the TGI [56] of the same compound?
Its TGI is 39.5 µM.

And the TGI [57]?
Its TGI is 31.6 µM.
